Laboratory results reported in patent US20210308089A1, “METHODS OF TREATING AND/OR PREVENTING VIRAL INFECTIONS AND/OR DISEASES CAUSED BY VIRUSES IN A SUBJECT IN NEED THEREOF” (priority 2020, published 2021).
Like-named read-outs stand apart in the source and are kept apart here.

System: patients of the REDUCE-IT and earlier EPA placebo-controlled trials
Format: in vivo, human
Settings: R-I
[1] = Bilirubin shift: normal to high (Day 120)
[2] = Bilirubin shift: normal to high (Day 360)
[3] = Bilirubin shift: normal to high (Day 720)
[4] = Bilirubin shift: normal to high (Day 1080)
[5] = Bilirubin shift: normal to high (Day 1440)
[6] = Bilirubin shift: normal to high (Day 1800)

CC/C=C\C/C=C\C/C=C\C/C=C\C/C=C\CCCC(=O)OCC [icosapent ethyl, eicosapentaenoic acid ethyl ester]
Risk Ratio (95% CI): ALP shift: normal to high (Day 1080): 0.395 (0.280 to 0.528) 4
Risk Ratio (95% CI): ALP shift: normal to high (Day 1440): 0.406 (0.287 to 0.575) 3
Risk Ratio (95% CI): ALP shift: normal to high (Day 1800): 0.439 (0.280 to 0.688) 3
Risk Ratio (95% CI): ALP shift: normal to low (Day 120): 3.341 (1.343 to 8.311) −4
Risk Ratio (95% CI): ALP shift: normal to low (Day 360): 2.394 (0.994 to 5.767) −3
Risk Ratio (95% CI): ALP shift: normal to low (Day 720): 2.783 (1.178 to 6.572) −4
Risk Ratio (95% CI): ALP shift: normal to low (Day 1080): 1.938 (0.831 to 4.522) −3
Risk Ratio (95% CI): ALP shift: normal to low (Day 1440): 1.199 (0.562 to 2.556) −1
Risk Ratio (95% CI): Albumin high (Day 120): 2.263 (1.388 to 3.689) −3
Risk Ratio (95% CI): Albumin high (Day 360): 1.901 (1.217 to 2.969) −3
Risk Ratio (95% CI): Albumin high (Day 720): 1.365 (0.975 to 1.911) −2
Risk Ratio (95% CI): Albumin high (Day 1080): 1.449 (0.993 to 2.115) −2
Risk Ratio (95% CI): Albumin high (Day 1440): 1.540 (1.001 to 2.369) −2
Risk Ratio (95% CI): Albumin shift: normal to high (Day 120): 3.055 (1.709 to 5.461) −4
Risk Ratio (95% CI): Albumin shift: normal to high (Day 360): 2.364 (1.388 to 4.027) −3
Risk Ratio (95% CI): Albumin shift: normal to high (Day 720): 1.475 (1.028 to 2.116) −2
Risk Ratio (95% CI): Albumin shift: normal to high (Day 1080): 1.257 (0.848 to 1.864) −2
Risk Ratio (95% CI): Albumin shift: normal to high (Day 1440): 1.531 (0.974 to 2.408) −2
Risk Ratio (95% CI): Bilirubin >1x ULN to 2x ULN: 3.157 (2.392 to 4.168) −4
Risk Ratio (95% CI): Bilirubin high (Day 120): 4.288 (2.849 to 6.454) −4
Risk Ratio (95% CI): Bilirubin high (Day 360): 3.263 (2.203 to 4.832) −4
Risk Ratio (95% CI): Bilirubin high (Day 720): 5.052 (3.174 to 8.039) −5
Risk Ratio (95% CI): Bilirubin high (Day 1080): 2.430 (1.683 to 3.508) −3
Risk Ratio (95% CI): Bilirubin high (Day 1440): 3.543 (2.243 to 5.596) −4
Risk Ratio (95% CI): Bilirubin high (Day 1800): 2.670 (1.569 to 4.545) −4
Risk Ratio (95% CI): Bilirubin shift: normal to high (Day 120): 5.106 (2.754 to 9.467) −5
Risk Ratio (95% CI): Bilirubin shift: normal to high (Day 360): 5.431 (2.773 to 10.636) −5
Risk Ratio (95% CI): Bilirubin shift: normal to high (Day 720): 4.803 (2.516 to 9.168) −4
Risk Ratio (95% CI): Bilirubin shift: normal to high (Day 1080): 2.235 (1.374 to 3.636) −3
Risk Ratio (95% CI): Bilirubin shift: normal to high (Day 1440): 5.445 (2.687 to 11.034) −5
Risk Ratio (95% CI): Bilirubin shift: normal to high (Day 1800): 2.556 (1.242 to 5.259) −4
Risk Ratio (95% CI): Calcium high (Day 120): 0.799 (0.517 to 1.236) 2
Risk Ratio (95% CI): Calcium high (Day 360): 0.915 (0.593 to 1.412) 1
Risk Ratio (95% CI): Calcium high (Day 720): 0.767 (0.491 to 1.200) 2
Risk Ratio (95% CI): Calcium low (Day 120): 1.399 (0.444 to 4.404) −2
Risk Ratio (95% CI): Calcium low (Day 360): 9.856 (1.262 to 76.953) −5
Risk Ratio (95% CI): Calcium low (Day 720): 2.911 (0.789 to 10.744) −4
Risk Ratio (95% CI): DBP High (≥100 mmHg): 1.121 (0.931 to 1.350) −1
Risk Ratio (95% CI): DBP High and Rose ≥10 mmHg: 1.092 (0.888 to 1.344) −1
Risk Ratio (95% CI): DBP Low (≤50 mmHG): 1.136 (0.732 to 1.763) −1
Risk Ratio (95% CI): DBP Low and dropped ≥10 mmHg: 1.030 (0.644 to 1.648) −1
Risk Ratio (95% CI): DBP dropped ≥10 mmHG: 1.087 (1.028 to 1.150) −1
Risk Ratio (95% CI): DBP rose ≥10 mmHg: 0.983 (0.927 to 1.041) 1
Risk Ratio (95% CI): High platelets (Day 720): 1.503 (1.007 to 2.242) −2
Risk Ratio (95% CI): Low platelets (Day 360): 0.366 (0.253 to 0.530) 4
Risk Ratio (95% CI): Low platelets (Day 720): 0.799 (0.608 to 1.051) 2
Risk Ratio (95% CI): Low platelets (Day 1080): 0.688 (0.512 to 0.925) 2
Risk Ratio (95% CI): Platelet count: PCS Low <100 × 10^3/uL: 0.442 (0.258 to 0.758) 3
Risk Ratio (95% CI): SBP High (≥160 mmHg): 0.912 (0.833 to 1.000) 1
Risk Ratio (95% CI): SBP High and rose ≥20 mmHg: 0.908 (0.805 to 1.023) 1
Risk Ratio (95% CI): SBP Low (≤90 mmHg): 1.819 (1.093 to 3.055) −3
Risk Ratio (95% CI): SBP dropped ≥20 mmHg: 1.117 (1.033 to 1.208) −1
Risk Ratio (95% CI): SBP low and dropped ≥20 mmHg: 1.422 (0.792 to 2.553) −2
Risk Ratio (95% CI): SBP rose ≥20 mmHg: 0.976 (0.912 to 1.045) 1
Risk Ratio (95% CI): Urate high (Day 120): 1.398 (1.246 to 1.568) −2
Risk Ratio (95% CI): Urate high (Day 360): 1.350 (1.197 to 1.523) −2
Risk Ratio (95% CI): Urate high (Day 720): 1.323 (1.162 to 1.506) −2
Risk Ratio (95% CI): Urate high (Day 1080): 1.102 (0.961 to 1.263) −1
Risk Ratio (95% CI): Urate high (Day 1440): 1.109 (0.956 to 1.286) −1
Risk Ratio (95% CI): Urate high (Day 1800): 1.084 (0.883 to 1.331) −1
Risk Ratio (95% CI): Urate shift: normal to high (Day 120): 1.689 (1.369 to 2.084) −3
Risk Ratio (95% CI): Urate shift: normal to high (Day 360): 1.674 (1.363 to 2.056) −3
Risk Ratio (95% CI): Urate shift: normal to high (Day 720): 1.513 (1.227 to 1.865) −2
Risk Ratio (95% CI): Urate shift: normal to high (Day 1080): 1.118 (0.910 to 1.374) −1
Risk Ratio (95% CI): Urate shift: normal to high (Day 1440): 1.079 (0.879 to 1.324) −1
Risk Ratio (95% CI): Urate shift: normal to high (Day 1800): 1.029 (0.782 to 1.355) −1
Risk Ratio (95% CI): Urate shift: normal to low (Day 120): 1.654 (0.396 to 6.915) −2
Risk Ratio (95% CI): Urate shift: normal to low (Day 360): 0.733 (0.255 to 2.110) 2
Risk Ratio (95% CI): Urate shift: normal to low (Day 720): 0.361 (0.096 to 1.360) 4
Risk Ratio (95% CI): Urate shift: normal to low (Day 1080): 0.474 (0.119 to 1.893) 3
Risk Ratio (95% CI): Urate shift: normal to low (Day 1440): 0.210 (0.046 to 0.973) 4
Risk Ratio (95% CI): Uric acid PCS High >7.5 mg/dL (Women): 1.180 (0.974 to 1.429) −1
Risk Ratio (95% CI): Uric acid PCS High >8.0 mg/dL (Men): 1.313 (1.183 to 1.458) −2
Risk Ratio (95% CI): Uric acid PCS Low <1.9 mg/dL (Women): 1.000 (0.063 to 15.986) −1
Risk Ratio (95% CI): Uric acid PCS Low <2.5 mg/dL (Men): 0.650 (0.324 to 1.305) 2
ARR (Bilirubin >1x ULN to 2x ULN): 3.5%
NNT (Bilirubin >1x ULN to 2x ULN): −29
Risk Ratio (95% CI) (Bilirubin >1x ULN to 2x ULN): 3.157 (2.392 to 4.168) −4
ARR (Bilirubin >2x ULN to 3x ULN): 0.2%
NNT (Bilirubin >2x ULN to 3x ULN): −497
Risk Ratio (95% CI) (Bilirubin >2x ULN to 3x ULN): 3.668 (1.024 to 13.136) −4
ARR (Bilirubin high (Day 120)): 2.4%
NNT (Bilirubin high (Day 120)): −42
Risk Ratio (95% CI) (Bilirubin high (Day 120)): 4.288 (2.849 to 6.454) −4
ARR (Bilirubin high (Day 360)): 2.0%
NNT (Bilirubin high (Day 360)): −50
Risk Ratio (95% CI) (Bilirubin high (Day 360)): 3.263 (2.203 to 4.832) −4
ARR (Bilirubin high (Day 720)): 2.6%
NNT (Bilirubin high (Day 720)): −38
Risk Ratio (95% CI) (Bilirubin high (Day 720)): 5.052 (3.174 to 8.039) −5
ARR (Bilirubin high (Day 1080)): 2.0%
NNT (Bilirubin high (Day 1080)): −50
Risk Ratio (95% CI) (Bilirubin high (Day 1080)): 2.430 (1.683 to 3.508) −3
ARR (Bilirubin high (Day 1440)): 2.5%
NNT (Bilirubin high (Day 1440)): −40
Risk Ratio (95% CI) (Bilirubin high (Day 1440)): 3.543 (2.243 to 5.596) −4
ARR (Bilirubin high (Day 1800)): 2.3%
NNT (Bilirubin high (Day 1800)): −43
Risk Ratio (95% CI) (Bilirubin high (Day 1800)): 2.670 (1.569 to 4.545) −4
ARR [1]: 1.3%
NNT [1]: −77
Risk Ratio (95% CI) [1]: 5.106 (2.754 to 9.467) −5
ARR [2]: 1.3%
NNT [2]: −80
Risk Ratio (95% CI) [2]: 5.431 (2.773 to 10.636) −5
ARR [3]: 1.3%
NNT [3]: −76
Risk Ratio (95% CI) [3]: 4.803 (2.516 to 9.168) −4
ARR [4]: 1.0%
NNT [4]: −95
Risk Ratio (95% CI) [4]: 2.235 (1.374 to 3.636) −3
ARR [5]: 1.8%
NNT [5]: −57
Risk Ratio (95% CI) [5]: 5.445 (2.687 to 11.034) −5
ARR [6]: 1.2%
NNT [6]: −81
Risk Ratio (95% CI) [6]: 2.556 (1.242 to 5.259) −4
Placebo-Adjusted % Change (Erythrocytes (Day 120)): +.72%
Placebo-Adjusted % Change (Erythrocytes (Day 360)): +.26%
Placebo-Adjusted % Change (Erythrocytes (Day 720)): +.29%
Placebo-Adjusted % Change (Erythrocytes (Day 1080)): +.43%
Placebo-Adjusted % Change (Erythrocytes (Day 1440)): +.66%
ARR (Erythrocytes low (Day 120)): −1.3%
NNT (Erythrocytes low (Day 120)): 77
Risk Ratio (95% CI) (Erythrocytes low (Day 120)): 0.814 (0.685 to 0.968) 1
ARR (Erythrocytes low (Day 360)): −0.4%
NNT (Erythrocytes low (Day 360)): 223
Risk Ratio (95% CI) (Erythrocytes low (Day 360)): 0.932 (0.781 to 1.113) 1
ARR (Erythrocytes low (Day 720)): −0.4%
NNT (Erythrocytes low (Day 720)): 251
Risk Ratio (95% CI) (Erythrocytes low (Day 720)): 0.940 (0.779 to 1.133) 1
ARR (Erythrocytes low (Day 1080)): −1.7%
NNT (Erythrocytes low (Day 1080)): 60
Risk Ratio (95% CI) (Erythrocytes low (Day 1080)): 0.781 (0.642 to 0.950) 2
ARR (Erythrocytes low (Day 1440)): −0.8%
NNT (Erythrocytes low (Day 1440)): 120
Risk Ratio (95% CI) (Erythrocytes low (Day 1440)): 0.888 (0.720 to 1.093) 1
ARR (Erythrocytes low (Day 1800)): −0.2%
NNT (Erythrocytes low (Day 1800)): 485
Risk Ratio (95% CI) (Erythrocytes low (Day 1800)): 0.975 (0.756 to 1.258) 1
Placebo-Adjusted % Change (Hematocrit (Day 120)): +.42%
